In patent US20080262064A1, “Novel Compounds For The Treatment Of GI Disorders 682” (ASTRAZENECA AB, priority 2007, published 2008):

target: T1, GABAB receptor (Homo sapiens, UniProt O75899+Q9UBS5); experiment: [35S]-GTPγS binding assay, potency of PAM on the GABA dose-response; type: biochemical; conditions: membranes from CHO cell lines expressing GABAB receptor; GABA in presence or absence of PAM
T1 construct: expressed in transfected cells
Description: GABABR1a and GABABR2 were cloned from human brain cDNA and subcloned into pCI-Neo (Promega) and pALTER-1(Promega), respectively. A GABABR1a-Gαqi5 fusion protein expression vector was constructed using the pCI-Neo-GABABR1a cDNA plasmid and pLEC1-Gαqi5 (Molecular Devices, Calif.). In order to make the Gαqi5 pertussis toxin insensitive, Cys356 was mutated to Gly using standard PCR methodology with the primers 5′-[…]-3′ (forward) and 5′-GCGGCCG […]-3′ (reverse). The Gαqi5mut cDNA was ligated into the BamHI and NotI sites of pcDNA3.0 (Invitrogen). The GABAB R1a coding sequence was amplified by PCR from pCI-Neo-GABABR1a using the primers, 5′-[…]-3′ (forward) and 5′-[…]-3′ (reverse) and subcloned into the BamHI site of pcDNA3.0-Gαqis5mut.
For generation of a cell line expressing the GABABR1a/GABABR2 heterodimer, GABABR1a plasmid DNA (4 μg) GABABR2 plasmid DNA (4 μg) and lipofectamine (24 μl) were mixed in 5 ml OptiMEM and incubated for 45 minutes at room temperature. The cells were exposed to the transfection medium for 5 hours, which then was replaced with culture medium. The cells were cultured for an additional 10 days before selection agents (300 μg/ml hygromycin and 400 μg/ml geneticin) were added. Twenty-four days after transfection, single cell sorting into 96-well plates by flow cytometry was performed using a FACS Vantage SE (Becton Dickinson, Palo Alto, Calif.), After expansion, the GABAB receptor functional response was tested using the FLIPR assay described below. The clone with the highest functional response was collected, expanded and then subcloned by single cell sorting. The clonal cell line with the highest peak response in the FLIPR was used in the present study.
For generation of a stable cell line expressing GABABR1a-Gαqi5 fusion protein and GABABR2, GABABR1a-Gαqi5mut plasmid DNA (8 μg) GABABR2 plasmid DNA (8 μg) and lipofectamine (24 μl) were mixed in 5 ml OptiMEM and incubated for 45 minutes at room temperature. The cells were exposed to the transfection medium for 5 hours, which then was replaced with culture medium. After forty-eight hours, the cells were detached and seeded in 6 well plates (2000 cells well) and grown in culture medium supplemented with geneticin (400 μg/ml) and zeocin (250 μg/ml). After 4 days, cells from single colonies were collected and transferred to a 24-well plate. After 10 days, the cell clones were seeded in T-25 flasks and grown for another 16 days before they were tested for GABAB receptor mediated functional response. […] The clonal cell line that gave the highest peak response in the FLIPR was used in the present study.
[^35S]-GTPγS binding assays were performed at 30° C. for 45 min in membrane buffer (100 mM NaCl, […], 1 mM EDTA, 50 mM HEPES, pH 7.4) containing 0.025 μg/μl of membrane protein (prepared from the cell lines described above) with 0.01% bovine serum albumin (fatty acid free): 10 μM GDP, 100 μM DTT and 0.53 nM [^35S]-GTPγS (Amersham-Pharmacia Biotech) in a final volume of 200 μl. Non-specific binding was determined in the presence of 20 μM GTPγS. The reaction was started by the addition of GABA at concentration between 1 mM and 0.1 nM in the presence or absence of the required concentration of PAM. The reaction was terminated by addition of ice-cold wash buffer (50 mM Tris-HCl, 5 mM MgCl2, 50 mM NaCl, pH 7.4) followed by rapid filtration under vacuum through Printed Filtermat A glass fiber filters (Wallac) (0.05% PEI treated) using a Micro 96 Harvester (Skatron Instruments). The filters were dried for 30 min at 50° C., then a paraffin scintillant pad was melted onto the filters and the bound radioactivity was determined using a 1450 Microbeta Trilux (Wallac) scintillation counter.
GABA dose-response curves in the presence and absence of test compounds were constructed using the 4-parameter logistic equation, y=ymax+((ymin−ymax)/1+(x/C)^D), where C=EC50 and D=slope factor.

T1 sequence (Q9UBS5 15-961 limits assumed): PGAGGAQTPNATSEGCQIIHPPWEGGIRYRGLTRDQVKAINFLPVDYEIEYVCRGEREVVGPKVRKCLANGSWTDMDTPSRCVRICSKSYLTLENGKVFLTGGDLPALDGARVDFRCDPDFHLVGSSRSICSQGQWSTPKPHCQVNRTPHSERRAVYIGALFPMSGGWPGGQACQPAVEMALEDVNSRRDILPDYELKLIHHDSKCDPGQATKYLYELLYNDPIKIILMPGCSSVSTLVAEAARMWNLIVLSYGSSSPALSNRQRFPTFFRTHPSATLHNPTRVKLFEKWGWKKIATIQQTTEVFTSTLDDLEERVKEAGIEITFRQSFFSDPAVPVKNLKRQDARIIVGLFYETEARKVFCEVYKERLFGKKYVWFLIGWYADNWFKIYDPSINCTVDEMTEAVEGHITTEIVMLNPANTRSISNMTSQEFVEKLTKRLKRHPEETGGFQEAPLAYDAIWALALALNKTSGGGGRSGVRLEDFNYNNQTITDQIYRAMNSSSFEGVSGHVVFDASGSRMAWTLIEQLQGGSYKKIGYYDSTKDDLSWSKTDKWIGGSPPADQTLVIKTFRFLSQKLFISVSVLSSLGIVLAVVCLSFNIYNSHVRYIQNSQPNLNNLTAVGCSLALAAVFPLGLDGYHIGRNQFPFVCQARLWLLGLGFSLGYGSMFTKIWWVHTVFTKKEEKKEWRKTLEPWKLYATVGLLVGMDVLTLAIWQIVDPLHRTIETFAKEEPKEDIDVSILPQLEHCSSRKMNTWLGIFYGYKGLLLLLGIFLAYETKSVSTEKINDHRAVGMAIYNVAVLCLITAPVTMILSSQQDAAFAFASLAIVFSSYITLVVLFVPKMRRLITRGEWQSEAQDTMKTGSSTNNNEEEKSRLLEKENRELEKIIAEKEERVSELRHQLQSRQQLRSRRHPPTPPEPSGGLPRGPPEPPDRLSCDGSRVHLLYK
T1 sequence (O75899 42-941): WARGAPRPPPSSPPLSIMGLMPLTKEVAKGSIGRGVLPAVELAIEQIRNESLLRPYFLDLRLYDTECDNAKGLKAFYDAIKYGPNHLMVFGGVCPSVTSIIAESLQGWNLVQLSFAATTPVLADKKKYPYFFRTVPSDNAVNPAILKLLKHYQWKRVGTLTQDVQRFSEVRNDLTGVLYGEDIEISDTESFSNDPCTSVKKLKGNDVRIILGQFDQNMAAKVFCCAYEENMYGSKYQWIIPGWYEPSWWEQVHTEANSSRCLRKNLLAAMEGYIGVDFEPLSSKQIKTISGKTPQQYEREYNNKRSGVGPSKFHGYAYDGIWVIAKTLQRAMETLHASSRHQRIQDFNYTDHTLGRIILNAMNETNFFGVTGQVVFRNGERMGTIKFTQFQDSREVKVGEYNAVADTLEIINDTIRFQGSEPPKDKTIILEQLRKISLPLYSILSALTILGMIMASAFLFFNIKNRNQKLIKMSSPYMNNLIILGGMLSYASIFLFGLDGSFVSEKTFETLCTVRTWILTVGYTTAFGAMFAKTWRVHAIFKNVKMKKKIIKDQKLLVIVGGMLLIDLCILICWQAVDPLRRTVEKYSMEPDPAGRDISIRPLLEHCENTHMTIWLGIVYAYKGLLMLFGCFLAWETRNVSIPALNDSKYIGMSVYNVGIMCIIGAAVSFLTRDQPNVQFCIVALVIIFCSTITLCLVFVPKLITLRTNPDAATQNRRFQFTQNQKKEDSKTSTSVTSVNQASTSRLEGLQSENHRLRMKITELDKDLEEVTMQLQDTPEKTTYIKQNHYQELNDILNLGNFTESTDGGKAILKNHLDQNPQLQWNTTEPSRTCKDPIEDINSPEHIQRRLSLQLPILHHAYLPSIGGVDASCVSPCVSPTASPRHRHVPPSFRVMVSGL

In order of rising IC50:
1. COc1nc(NC(=O)c2c(F)cc(F)cc2F)c(C(=O)OC(C)(C)C)n1-c1ccc(F)cc1 [Example 8, Tert-butyl 1-(4-fluorophenyl)-2-methoxy-4-[(2,4,6-trifluorobenzoyl)amino]-1H-imidazole-5-carboxylate]  810 nM
2. COc1nc(NC(=O)c2ccc(Cl)cc2Cl)c(C(=O)OC(C)(C)COc2ccccc2)n1-c1ccc(F)cc1 [Example 12, 1,1-dimethyl-2-phenoxyethyl 4-[(2,4-dichlorobenzoyl)amino]-1-(4-fluorophenyl)-2-methoxy-1H-imidazole-5-carboxylate]  960 nM
3. CCc1nc(NC(=O)c2ccc(N=[N+]=[N-])cc2)c(C(=O)OC(C)(C)C)n1-c1ccc(F)cc1 [Example 19, Tert-butyl 4-[(4-azidobenzoyl)amino]-2-ethyl-1-(4-fluorophenyl)-1H-imidazole-5-carboxylate]  1100 nM
4. COc1nc(NC(=O)c2ccc(Cl)cc2Cl)c(C(=O)OC(C)(C)COCC(F)(F)F)n1-c1ccc(F)cc1 [Example 11, 1,1-dimethyl-2-(2,2,2-trifluoroethoxy)ethyl 4-[(2,4-dichlorobenzoyl)amino]-1-(4-fluorophenyl)-2-methoxy-1H-imidazole-5-carboxylate]  1100 nM
5. COCC(C)(C)OC(=O)c1c(NC(=O)c2ccc(Cl)cc2)nc(OC)n1-c1ccc2c(c1)OCO2 [Example 16, 2-methoxy-1,1-dimethylethyl 1-(1,3-benzodioxol-5-yl)-4-[(4-chlorobenzoyl)amino]-2-methoxy-1H-imidazole-5-carboxylate]  1200 nM
6. COCC(C)(C)OC(=O)c1c(NC(=O)c2ccc(Cl)cc2Cl)nc(OC)n1-c1cccc(OC)c1 [Example 18, 2-methoxy-1,1-dimethylethyl 4-[(2,4-dichlorobenzoyl)amino]-2-methoxy-1-(3-methoxyphenyl)-1H-imidazole-5-carboxylate]  1300 nM
7. COc1nc(NC(=O)C2(c3ccc(Cl)cc3)CCCC2)c(C(=O)OC(C)(C)C)n1-c1ccc(F)cc1 [Example 4, Tert-butyl 4-({[1-(4-chlorophenyl)cyclopentyl]carbonyl}amino)-1-(4-fluorophenyl)-2-methoxy-1H-imidazole-5-carboxylate]  1400 nM
8. COCC(C)(C)OC(=O)c1c(NC(=O)C2COc3ccccc3O2)nc(OC)n1-c1ccc2c(c1)OCO2 (stereo not shown) [Example 15, 2-methoxy-1,1-dimethylethyl 1-(1,3-benzodioxol-5-yl)-4-[(2,3-dihydro-1,4-benzodioxin-2-ylcarbonyl)amino]-2-methoxy-1H-imidazole-5-carboxylate]  1400 nM
9. COCCOCC(C)(C)OC(=O)c1c(NC(=O)c2ccc(Cl)cc2Cl)nc(OC)n1-c1ccc(F)cc1 [Example 10, 2-(2-methoxyethoxy)-1,1-dimethylethyl 4-[(2,4-dichlorobenzoyl)amino]-1-(4-fluorophenyl)-2-methoxy-1H-imidazole-5-carboxylate]  1500 nM
10. COc1nc(NC(=O)C2COc3ccccc3O2)c(C(=O)OC(C)(C)C)n1-c1ccc(F)cc1 (stereo not shown) [Example 3, Tert-butyl 4-[(2,3-dihydro-1,4-benzodioxin-2-ylcarbonyl)amino]-1-(4-fluorophenyl)-2-methoxy-1H-imidazole-5-carboxylate]  1500 nM
11. COc1nc(NC(=O)c2cnn(-c3ccc(Cl)cc3)c2C(F)(F)F)c(C(=O)OC(C)(C)C)n1-c1ccc(F)cc1 [Example 6, Tert-butyl 4-({[1-(4-chlorophenyl)-5-(trifluoromethyl)-1H-pyrazol-4-yl]carbonyl}amino)-1-(4-fluorophenyl)-2-methoxy-1H-imidazole-5-carboxylate]  1600 nM
12. COc1nc(NC(=O)c2ccc(Oc3ccccc3)nc2)c(C(=O)OC(C)(C)C)n1-c1ccc(F)cc1 [Example 7, Tert-butyl 1-(4-fluorophenyl)-2-methoxy-4-{[(6-phenoxypyridin-3-yl)carbonyl]amino}-1H-imidazole-5-carboxylate]  1600 nM
13. CCOC(=O)C1(OC(=O)c2c(NC(=O)c3ccc(Cl)cc3Cl)nc(OC)n2-c2ccc(F)cc2)CC1 [Example 13, 1-(ethoxycarbonyl)cyclopropyl 4-[(2,4-dichlorobenzoyl)amino]-1-(4-fluorophenyl)-2-methoxy-1H-imidazole-5-carboxylate]  2000 nM
14. CCC1(C)CCC(C(C)(C)OC(=O)c2c(NC(=O)c3ccc(Cl)cc3Cl)nc(OC)n2-c2ccc(F)cc2)O1 (stereo not shown) [Example 14, 1-(5-ethyl-5-methyltetrahydrofuran-2-yl)-1-methylethyl 4-[(2,4-dichlorobenzoyl)amino]-1-(4-fluorophenyl)-2-methoxy-1H-imidazole-5-carboxylate]  2100 nM
15. COc1nc(NC(=O)c2ccc(Cl)cc2Cl)c(C(=O)OC(C)(C)C)n1-c1ccc(F)cc1 [Example 9, Tert-butyl 4-[(2,4-dichlorobenzoyl)amino]-1-(4-fluorophenyl)-2-methoxy-1H-imidazole-5-carboxylate]  2160 nM
16. COc1nc(NC(=O)c2ccc(Cl)cc2)c(C(=O)OC(C)(C)C)n1-c1ccc(F)cc1 [Example 2, Tert-butyl 4-[(4-chlorobenzoyl)amino]-1-(4-fluorophenyl)-2-methoxy-1H-imidazole-5-carboxylate]  3100 nM
17. COCC(C)(C)OC(=O)c1c(NC(=O)COCc2ccccc2)nc(OC)n1-c1ccc2c(c1)OCO2 [Example 17, 2-methoxy-1,1-dimethylethyl 1-(1,3-benzodioxol-5-yl)-4-{[(benzyloxy)acetyl]amino}-2-methoxy-1H-imidazole-5-carboxylate]  3400 nM
18. CCc1nc(NC(=O)c2ccc(Cl)cc2Cl)c(C(=O)OC(C)(C)C)n1-c1ccc(F)cc1 [Example 20, Tert-butyl 4-[(2,4-dichlorobenzoyl)amino]-2-ethyl-1-(4-fluorophenyl)-1H-imidazole-5-carboxylate]  3700 nM
19. COc1nc(NC(=O)c2scc(S(=O)(=O)C(C)C)c2Cl)c(C(=O)OC(C)(C)C)n1-c1ccc(F)cc1 [Example 1, Tert-butyl 4-({[3-chloro-4-(isopropylsulfonyl)-2-thienyl]carbonyl}amino)-1-(4-fluorophenyl)-2-methoxy-1H-imidazole-5-carboxylate]  4000 nM
20. COc1nc(NC(=O)C(OC)(c2ccccc2)C(F)(F)F)c(C(=O)OC(C)(C)C)n1-c1ccc(F)cc1 (stereo not shown) [Example 5, Tert-butyl 1-(4-fluorophenyl)-2-methoxy4-[(3,3,3-trifluoro-2-methoxy-2-phenylpropanoyl)amino]-1H-imidazole-5-carboxylate]  6200 nM

same assay, conditions: potency of PAM in GTPγS assays

In order of falling EC50:
1. COc1nc(NC(=O)c2ccc(Cl)cc2Cl)c(C(=O)OC(C)(C)C)n1-c1ccc(F)cc1 [Example 9, Tert-butyl 4-[(2,4-dichlorobenzoyl)amino]-1-(4-fluorophenyl)-2-methoxy-1H-imidazole-5-carboxylate]  2160 nM
2. COc1nc(NC(=O)c2ccc(Cl)cc2Cl)c(C(=O)OC(C)(C)COc2ccccc2)n1-c1ccc(F)cc1 [Example 12, 1,1-dimethyl-2-phenoxyethyl 4-[(2,4-dichlorobenzoyl)amino]-1-(4-fluorophenyl)-2-methoxy-1H-imidazole-5-carboxylate]  960 nM
